Experimental data as given in a melting point compilation (Tetko et al.; mined from patent text by program, amines drawn as free bases though some values may be those of a salt).

| SMILES | melting point |
| --- | --- |
| OC1(C#CC2(F)C=CC(c3ccccc3)=CC2)CN2CCC1CC2 (stereo unspecified) | 232 to 233 °C |
| Clc1cccc2cnsc12 | 50 to 51 °C |
| COc1ccc(Cc2cnc(N)nc2N)cc1 | 206 to 209 °C |
| Fc1nc(NCc2ccccn2)c2nc[nH]c2n1 | 217 to 220 °C |
| CCCCCCCCCCCCCCCCCCS(=O)(=O)c1cc2ccccc2c(N)c1O | 84 to 88 °C |
| CCNC(=O)c1sc(SC)cc1[Si](C)(C)C | 58 to 61 °C |
| Nc1nc(-c2ccco2)c(C(=O)C2CCOCC2)s1 | 184 to 188 °C |
| O=C(N[C@H]1CN(C(=O)N2CCC[C@H]2C(=O)O)C1=O)c1ccccc1 | 148 to 151 °C |
| NS(=O)(=O)c1cc2[nH]c(S)nc2cc1Cl | 341 to 343 °C |
| CC(C)C[C@H](NC(=O)CCCc1ccccc1)C(=O)N[C@@H](Cc1ccccc1)C(=O)CSCc1ccco1 | 106 to 108 °C |
| Cc1c(C#N)c(=O)oc2ccc(Br)cc12 | 187 to 192 °C |
| CCOC(=O)C(Cc1ccc(CN(CC)CC)cc1)NC(=O)OC(C)(C)C (stereo unspecified) | 56 °C |
| N#Cc1cc(N)ccc1N1CCC(CCO)CC1 | 60 to 63 °C |
| CCCCCCCCCCCCCCCCCCOCC(O)Cn1cc(F)c(N)nc1=O (stereo unspecified) | 118 to 119 °C |
| NC(=O)c1cc2cc(N3CCNCC3)ccc2o1 | 252 to 255 °C |
| N#Cc1cc(C(=O)NNC(=O)c2occc2-c2cccc(Oc3ccccc3)c2)ccc1O | 227 to 228 °C |
| O=C(Nc1nc(=O)c2cnn3c2n1CC=C3c1cccc(C(F)(F)F)c1)C(F)(F)F | 184 to 185 °C |
| Cc1ccc(-c2nsc3ccccc23)cc1 | 56 °C |
| Cc1nc(N)c2nc(-c3ccccc3)cc-2[nH]1 | > 280 °C |
| CON=C(C(=O)OC)c1csc(N)n1 | 165 °C |
| CCCCNC(=O)NS(=O)(=O)Cc1c(C(=O)OC)cccc1[N+](=O)[O-] | 144 to 150 °C |

| SMILES | melting point |
| --- | --- |
| Cc1c(C(=O)O)ccc(Cl)c1Cl | 174 to 175 °C |
| CCCCCCCCCCCCNC(=O)OCc1ccc(OC(C)=O)c(OC)c1 | 54 to 56 °C |
| CC1CCc2ccc3ccccc3c2C1=O (stereo unspecified) | 61 to 63 °C |
| C#Cc1cccc(C(=O)OCc2ccccc2)c1N | 42 to 43 °C |
| CNc1nc(C)c(-c2cccnc2)s1 | 152 to 153 °C |
| O=C(Cc1ccccc1)N1CCC2(Cc3ccccc3O2)C1 (stereo unspecified) | 98 to 99 °C |
| Cc1cc(C=O)c(OCCCCCCc2ccccc2)c(C=O)c1 | 64 °C |
| Nc1cc(Sc2ccc(Cl)cc2)nc(-c2ccccc2)n1 | 118 to 121 °C |
| CSC(=NCC(C)C)Nc1cc(Cl)cc(Cl)c1 | 150 °C |
| OCC[C@H]1[C@@H]2O[C@@H]2C(F)(F)[C@@H]1O | 59 to 59.5 °C |
| O=C(NC(Cc1ccc(OCc2ccccc2)cc1)C(=O)NC1C(C(=O)O)OC(n2cnc3c(NC(=O)c4ccccc4)ncnc32)C1O)OCc1ccccc1 (stereo unspecified) | 150 to 155 °C |
| CC(C)CCSC1=C(O)CC(C)(C)CC1=O | 59 to 61 °C |
| COc1ccc(C(=O)C=Cc2ccc([N+](=O)[O-])cc2)cc1 | 171 to 173 °C |
| C#CCON=C(C)C1CN2CCC1CC2 (stereo unspecified) | 56 to 58 °C |
| Cc1ccc([N+](=O)[O-])c(C)c1C1OCCO1 | 69 to 71 °C |
| COC(=O)Cc1sc(SCc2cc(O)nc(C)n2)nc1C | 130 to 132 °C |
| O=C(O)Cc1ccccc1Sc1ccc(F)c(Cl)c1 | 85 to 87 °C |
| CC(C)c1ccc(C2COc3ccc(NC(=O)CC(C)(C)C)cc32)cc1 (stereo unspecified) | 119 to 120 °C |
| CC(C)c1ccc(-c2noc3c2CCC(C(=O)O)CC3)cc1 (stereo unspecified) | 109 to 111 °C |
| CNCC1Cc2cc(Cl)cc(-c3ccccc3OC)c2O1 (stereo unspecified) | 100 to 102 °C |
| CC(=O)Nc1ncc(Sc2ccc(O)cc2)s1 | 265 to 267 °C |

| SMILES | melting point |
| --- | --- |
| O=C(CF)Cc1ccc(Cl)cc1Cl | 48 to 52 °C |
| CN1CCN(c2cc3nc(C(C)(C)C)sc3cc2N)CC1 | 130 °C |
| O=C(Nc1ccc(C(=O)N2Cc3cccn3-c3ccccc32)cc1)c1cccc(Cl)c1Cl | 230 to 240 °C |
| Cn1c(CO)nc2cc(Cl)cnc21 | 141 to 142 °C |
| Cc1cc(C=NNC(N)=S)ncc1N | 235 to 236 °C |
| COC(=O)CCON1C(C)(C)CC(OC(=O)c2ccccc2C(=O)OC2CC(C)(C)N(OCCC(=O)OC)C(C)(C)C2)CC1(C)C | 117 to 118 °C |
| Cc1cc(S(N)(=O)=O)cs1 | 102 to 104 °C |
| N#C/C(=C\c1cc(O)c(O)c(I)c1)C(=O)NCc1ccccc1 | 220 °C |
| O=C1c2c([N+](=O)[O-])cccc2S(=O)(=O)N1CCO | 140 to 141 °C |
| CC1=NC(=NOC(=O)NC2CC2)SC1(C)C | 86 to 89 °C |
| Cc1ccc(S(=O)(=O)OCCN(CCOS(=O)(=O)c2ccc(C)cc2)Sc2ccccc2[N+](=O)[O-])cc1 | 91 to 93 °C |
| Clc1ccc(-c2cccs2)nn1 | 155 °C |
| CCCCc1nc2c(N)nc3ccccc3c2n1CCCCON=C(C)C | 115 to 117 °C |
| CC(C)(C)OC(=O)N1C(COc2noc3ccc(Cl)cc23)COC1(C)C (stereo unspecified) | 117 to 118 °C |
| CC1(C)C2CC[C@]1(C)C(=O)C(C(=O)Nc1ccc(Cl)c(C(F)(F)F)c1)C2=O (stereo partly specified) | 118 to 120 °C |
| O=C(O)C1=Cc2cc(I)ccc2OC1C(F)(F)F (stereo unspecified) | 168 to 170 °C |
| O=C(Nc1ccccn1)C1=C(O)c2sc3ccccc3c2S(=O)(=O)N1 | 240 to 242 °C |
| CCOC(=O)c1cc2c3n(ccc-2n1)CC(CO)=N3 | 227 to 229 °C |
| CC1COC(Nc2ccccc2)(c2ccnc(C(=O)c3ccc(Cl)cc3)c2)O1 (stereo unspecified) | 125 to 126 °C |
| COc1cc(O)c2c(=O)c(OC)c(-c3ccc(OC(=O)C(O)C(O)C(=O)O)c(OC)c3)oc2c1 (stereo unspecified) | 179 to 180 °C |

Other lines, results leading:

| melting point | SMILES |
| --- | --- |
| 191 °C | O=C(COc1cc(-c2ccc(Cl)cc2)nc2ccccc12)N1CCOCC1 |
| 160 °C | CC(C)c1ccccc1S(=O)(=O)c1ccc(O)cc1 |
| 268 to 269 °C | COc1ccc2c(c1)C(=O)c1nc3ccccc3c(=O)n1-2 |
| 223 to 224 °C | CCS(=O)(=O)c1cc2c(cc1OC)CCn1c3c(c(-c4cccs4)c1-2)CCCCN(C(C)(C)C)C3=O |
| 212 to 214 °C | Cn1c(C(F)(F)F)cc(=O)n(-c2cc(OCN3C(=O)CCC3=O)c(Cl)cc2F)c1=O |
| 113 to 114 °C | CCOC(=O)c1sc(Cl)nc1-c1ccc(F)cc1 |
| > 230 °C | Nc1ccc(-c2nc3c(O)cccc3c(=O)[nH]2)cc1 |
| 136 to 138 °C | COc1cc2c3c(Br)cc(OC)c(OC)c3n(C(=O)c3ccc(C(C)(C)C)cc3)c2cc1OC |
| 70 to 72 °C | CC(=O)NCC1CN(c2ccc(N3CCC(O)C(C)(C)C3)c(F)c2)C(=O)O1 (stereo unspecified) |
| 223 to 225 °C | CCCOc1ccc(S(=O)(=O)N2CC[C@@H](N(C)C)C2)cc1-c1nc2cc3ncn(Cc4ccc(F)cc4)c3cc2c(=O)[nH]1 |
| 60 to 62 °C | COc1ccc(-c2ccc3c(c2)C2(CO3)C(=O)N(Cc3ccc(Cl)s3)c3ccccc32)cn1 (stereo unspecified) |
| 69 to 70 °C | CCOC(=O)C=Cc1ccc(CCc2nc(-c3ccccc3)c(C)s2)cc1 |
| 224 to 225 °C | COc1cc(OC)c2cc(S(=O)(=O)Cc3ccc(OC)c([N+](=O)[O-])c3)c(=O)oc2c1 |
| 103 to 105 °C | CCC1C(C=O)=NN=C(c2ccc(OC)c(OC)c2)c2cc(OC)c(OC)cc21 (stereo unspecified) |
| 186 °C | Cc1nc2c(CO)cccn2c(=O)c1CCN1CCC(c2noc3cc(F)ccc23)CC1 |
| 118 to 120 °C | COc1ccc2c3c(c(=O)oc2c1)CN(Cc1ccccc1)CC3 |
| 204 to 205 °C | O=C1c2ccccc2C(=O)N1CCCCc1nccc(NC(=S)NCC(F)(F)F)n1 |
| 142 to 145 °C | CCOC(=O)COc1ccc(CCNC(=O)C[C@H]2O[C@H](c3cccc(OC)c3OC)c3cc(Cl)ccc3N(CC(C)(C)CO)C2=O)cc1 |
| 199 to 200 °C | Nc1nc2ccccc2c2c1nc(CCCOc1ccccc1)n2CCCNC(=O)N1CCOCC1 |
| 128 to 129 °C | CC(C)CN(CC(O)(Cn1cncn1)c1ccc(Cl)cc1Cl)S(C)(=O)=O (stereo unspecified) |

| melting point | SMILES |
| --- | --- |
| 218 to 219 °C | CN1CCC(c2c(O)cc(O)c3c(=O)cc(-c4ccccc4Cl)oc23)C1CN (stereo unspecified) |
| 80 °C | CCN(CC)C(=O)CCc1nc(-c2ccccc2)nc2c(C)cccc12 |
| 47 to 49 °C | CC1(C)c2ccc(CCN3CCN(c4nsc5ccccc45)CC3)cc2C(C)(C)C1O (stereo unspecified) |
| 148 to 149 °C | COC(=O)c1cc(SCc2ccsc2)c(Oc2ccccc2)c(S(N)(=O)=O)c1 |
| 187 to 188 °C | Nn1cc(C(=O)NCc2ccc(Cl)cc2)c(=O)c2cc(CCCO)ccc21 |
| 193 to 195 °C | CC(c1oc2ccccc2c(=O)c1-c1cccc(F)c1)n1nc(-c2ccc(O)c(O)c2)c2c(N)ncnc21 (stereo unspecified) |
| 103 to 110 °C | Cn1cc(C(=O)O)cc1C(=O)OC(c1ccc2c(c1)OCO2)c1ccc2c(c1)OCO2 |
| 153 to 154 °C | O=C(Nc1ccc(Oc2ccnc(-n3ccnc3)n2)c2ccccc12)c1cc(F)cc(N2CCOCC2)c1 |
| 219 to 220 °C | CCN1c2ncccc2C(=O)N(C)c2ccc(-c3c[nH]c(C(C)=O)c3)nc21 |
| 116 to 119 °C | CCOC(=O)c1ccc(COc2cccc(NC(C)=O)c2C=O)cc1 |
| 169 °C | O=S(=O)(c1ccc(Cl)cc1)c1ccc(-c2ccccc2)cc1 |
| 157 to 158 °C | O=C1C(c2ccccc2)=C(c2ccccc2)C(=O)N1c1cccc(F)c1 |
| 97 to 99 °C | O=[N+]([O-])c1cc(S(=O)(=O)C(F)(F)F)[nH]c1-c1ccc(Cl)cc1 |
| 157 to 158 °C | COc1cc(COc2cc(CCC(=O)O)n(-c3ccccc3)n2)ccc1OCc1nc(-c2ccccc2)oc1C |
| 112 °C | Cc1ccc2nc(CN3CCN(c4ccc(F)cc4)CC3)cn2c1 |
| 136 °C | CCN(c1cccc(OC)c1)c1nc(=O)c2cccnc2s1 |
| 196 °C | CC1(Cl)C=CC2=C(c3cccc(CCCC(=O)O)c3)C(CC(=O)Nc3ccc(F)cc3C(F)(F)F)C(=O)OC2=C1 (stereo unspecified) |
| 96.5 to 97.5 °C | O=S(=O)(c1ccc(Oc2cccc(C(F)(F)F)c2)cc1)c1ccc(Oc2cccc(C(F)(F)F)c2)cc1 |
| 142 to 145 °C | O=c1c2cccnc2c(-c2cccc(Cl)c2)cn1Cc1cccs1 |
